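Values below derive from 48-hour exposures of cells grown in 96-well plates, with endpoints linearly interpolated between the two concentrations bracketing the appropriate inhibition level. GI50: concentration for 50% inhibition of growth. TGI marks complete inhibition of growth.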
What was measured:
Experiment in all cases: growth of human tumour cells (NCI), 48 h
BT-549 breast = test system: BT-549 breast
SF-268 CNS = test system: SF-268 CNS
NCI-H23 lung = test system: NCI-H23 lung
A549 NSCLC = test system: A549 NSCLC
UO-31 renal = test system: UO-31 renal
HOP-92 NSCLC = test system: HOP-92 NSCLC
RXF 393 renal = test system: RXF 393 renal
OVCAR-3 ovarian = test system: OVCAR-3 ovarian
A498 renal = test system: A498 renal
ACHN renal = test system: ACHN renal
MCF7 breast = test system: MCF7 breast
DU-145 prostate = test system: DU-145 prostate
SW-620 colon = test system: SW-620 colon
LOX IMVI melanoma = test system: LOX IMVI melanoma
OVCAR-5 ovarian = test system: OVCAR-5 ovarian
T-47D breast = test system: T-47D breast
TK-10 renal = test system: TK-10 renal
SF-539 CNS = test system: SF-539 CNS
PC-3 prostate = test system: PC-3 prostate
HS 578T breast = test system: HS 578T breast
HL-60(TB) leukemia = test system: HL-60(TB) leukemia
MALME-3M melanoma = test system: MALME-3M melanoma
HCT-15 colon = test system: HCT-15 colon
SK-OV-3 ovarian = test system: SK-OV-3 ovarian
SN12C renal = test system: SN12C renal
SK-MEL-28 melanoma = test system: SK-MEL-28 melanoma
COLO 205 colon = test system: COLO 205 colon
UACC-257 melanoma = test system: UACC-257 melanoma
CAKI-1 renal = test system: CAKI-1 renal
HCT-116 colon = test system: HCT-116 colon
HOP-62 NSCLC = test system: HOP-62 NSCLC
786-0 renal = test system: 786-0 renal
MDA-MB-231 breast = test system: MDA-MB-231 breast
UACC-62 melanoma = test system: UACC-62 melanoma
KM12 colon = test system: KM12 colon
OVCAR-4 ovarian = test system: OVCAR-4 ovarian
HT29 colon = test system: HT29 colon
SF-295 CNS = test system: SF-295 CNS
SK-MEL-5 melanoma = test system: SK-MEL-5 melanoma
SNB-19 CNS = test system: SNB-19 CNS
OVCAR-8 ovarian = test system: OVCAR-8 ovarian
IGROV1 ovarian = test system: IGROV1 ovarian
M14 melanoma = test system: M14 melanoma
NCI-H460 lung = test system: NCI-H460 lung
RPMI-8226 leukemia = test system: RPMI-8226 leukemia
NCI/ADR-RES ovarian = test system: NCI/ADR-RES ovarian
MOLT-4 leukemia = test system: MOLT-4 leukemia
CCRF-CEM leukemia = test system: CCRF-CEM leukemia
NCI-H522 lung = test system: NCI-H522 lung
SK-MEL-2 melanoma = test system: SK-MEL-2 melanoma
SR leukemia = test system: SR leukemia
K-562 leukemia = test system: K-562 leukemia
NCI-H226 lung = test system: NCI-H226 lung
U251 CNS = test system: U251 CNS
MDA-MB-435 = test system: MDA-MB-435
SNB-75 CNS = test system: SNB-75 CNS
HCC-2998 colon = test system: HCC-2998 colon

Which results are given for COc1cccc(C2CC(=O)Nc3c2c(C)nn3-c2nc3ccccc3[nH]2)c1OC (configuration not stated)?
GI50 (BT-549 breast): 5.52 µM; TGI (BT-549 breast): 42.2 µM; GI50 (SF-268 CNS): 4.92 µM; TGI (SF-268 CNS): 61.3 µM; GI50 (NCI-H23 lung): 2.53 µM; TGI (NCI-H23 lung): 7.54 µM; GI50 (A549 NSCLC): 3.5 µM; TGI (A549 NSCLC): 28.6 µM; GI50 (UO-31 renal): 3.35 µM; TGI (UO-31 renal): 23.6 µM; GI50 (HOP-92 NSCLC): 2.95 µM; TGI (HOP-92 NSCLC): 24.3 µM; GI50 (RXF 393 renal): 2.91 µM; TGI (RXF 393 renal): 10.6 µM; GI50 (OVCAR-3 ovarian): 4.55 µM; TGI (OVCAR-3 ovarian): 19.8 µM; TGI (A498 renal): 8.38 µM; GI50 (ACHN renal): 3.98 µM; TGI (ACHN renal): > 90.9 µM; GI50 (MCF7 breast): 3.36 µM; TGI (MCF7 breast): > 100 µM; GI50 (DU-145 prostate): 8.68 µM; TGI (DU-145 prostate): > 89.4 µM; GI50 (SW-620 colon): 4.19 µM; TGI (SW-620 colon): 46.4 µM; GI50 (LOX IMVI melanoma): 3.65 µM; TGI (LOX IMVI melanoma): 12.9 µM; GI50 (OVCAR-5 ovarian): 11.8 µM; TGI (OVCAR-5 ovarian): > 100 µM; GI50 (T-47D breast): 4.02 µM; TGI (T-47D breast): 50.7 µM; GI50 (TK-10 renal): 6.8 µM; TGI (TK-10 renal): > 100 µM; GI50 (SF-539 CNS): 2.76 µM; TGI (SF-539 CNS): 9.38 µM; GI50 (PC-3 prostate): 4.44 µM; TGI (PC-3 prostate): 60.5 µM; GI50 (HS 578T breast): 3.51 µM; TGI (HS 578T breast): 47.5 µM; GI50 (HL-60(TB) leukemia): 2.97 µM; TGI (HL-60(TB) leukemia): 13.8 µM; GI50 (MALME-3M melanoma): 7.97 µM; TGI (MALME-3M melanoma): 39 µM; GI50 (HCT-15 colon): 3.45 µM; TGI (HCT-15 colon): 26.8 µM; GI50 (SK-OV-3 ovarian): 3.83 µM; TGI (SK-OV-3 ovarian): 13 µM; GI50 (SN12C renal): 4.29 µM; TGI (SN12C renal): 48.3 µM; GI50 (SK-MEL-28 melanoma): 9.71 µM; TGI (SK-MEL-28 melanoma): > 87 µM; GI50 (COLO 205 colon): 5.72 µM; TGI (COLO 205 colon): 20.1 µM; GI50 (UACC-257 melanoma): 5.77 µM; TGI (UACC-257 melanoma): 39.8 µM; GI50 (CAKI-1 renal): 3 µM; TGI (CAKI-1 renal): 19.7 µM; GI50 (HCT-116 colon): 3.36 µM; TGI (HCT-116 colon): 14.6 µM; GI50 (HOP-62 NSCLC): 2.73 µM; TGI (HOP-62 NSCLC): 7.78 µM; GI50 (786-0 renal): 5.51 µM; TGI (786-0 renal): 65 µM; GI50 (MDA-MB-231 breast): 2.92 µM; TGI (MDA-MB-231 breast): 8.26 µM; GI50 (UACC-62 melanoma): 2.52 µM; TGI (UACC-62 melanoma): 7.86 µM; GI50 (KM12 colon): 4.17 µM; TGI (KM12 colon): 19.8 µM; GI50 (OVCAR-4 ovarian): 6.92 µM; TGI (OVCAR-4 ovarian): > 91.3 µM; GI50 (HT29 colon): 4.35 µM; TGI (HT29 colon): > 47.6 µM; GI50 (SF-295 CNS): 1.37 µM; TGI (SF-295 CNS): 3.78 µM; GI50 (SK-MEL-5 melanoma): 2.2 µM; TGI (SK-MEL-5 melanoma): 5.74 µM; GI50 (SNB-19 CNS): 4.07 µM; TGI (SNB-19 CNS): > 100 µM; GI50 (OVCAR-8 ovarian): 4.41 µM; TGI (OVCAR-8 ovarian): > 100 µM; GI50 (IGROV1 ovarian): 4.33 µM; TGI (IGROV1 ovarian): 24 µM; GI50 (M14 melanoma): 4.45 µM; TGI (M14 melanoma): 30.3 µM; GI50 (NCI-H460 lung): 3.09 µM; TGI (NCI-H460 lung): 10.2 µM; GI50 (RPMI-8226 leukemia): 3.21 µM; TGI (RPMI-8226 leukemia): 10.6 µM; GI50 (NCI/ADR-RES ovarian): 6.67 µM; TGI (NCI/ADR-RES ovarian): > 100 µM; GI50 (MOLT-4 leukemia): 0.0531 µM; GI50 (CCRF-CEM leukemia): 1.86 µM; TGI (CCRF-CEM leukemia): > 100 µM; GI50 (NCI-H522 lung): 3.7 µM; TGI (NCI-H522 lung): 17.8 µM; GI50 (SK-MEL-2 melanoma): 6.37 µM; TGI (SK-MEL-2 melanoma): 32.7 µM; GI50 (SR leukemia): 4.22 µM; TGI (SR leukemia): > 40.9 µM; GI50 (K-562 leukemia): 3.89 µM; TGI (K-562 leukemia): > 100 µM; GI50 (NCI-H226 lung): 3.36 µM; TGI (NCI-H226 lung): 15.9 µM; GI50 (U251 CNS): 3.63 µM; TGI (U251 CNS): 20.3 µM; GI50 (MDA-MB-435): 3 µM; TGI (MDA-MB-435): 12 µM; GI50 (SNB-75 CNS): 2.43 µM; TGI (SNB-75 CNS): 13.5 µM; GI50 (HCC-2998 colon): 18.1 µM; TGI (HCC-2998 colon): > 79.8 µM

Source: PubChem BioAssay (NCI)
